In experiment [1] the target is T1, human cannabis CB1 receptor (Homo sapiens, UniProt P21554).
T1 construct: expressed in transfected cells; host or cells: human embryonic kidney (HEK) cells, Semliki Forest Virus system, membrane preparation
In words: Affinity for cannabinoid CB1 receptor, [3H]-CP-55,940 radioligand binding on HEK cell membranes. As to conditions: affinity for the CB1 receptor. The procedure:
The affinity of the compounds of the invention for cannabinoid CB1 receptors was determined using membrane preparations of human embryonic kidney (HEK) cells in which the human cannabis CB1 receptor is transiently transfected using the Semliki Forest Virus system in conjunction with [3H]-CP-55,940 as radioligand. After incubation of a freshly prepared cell membrane preparation with the [3H]-ligand, with or without addition of compounds of the invention, separation of bound and free ligand was performed by filtration over glassfiber filters. Radioactivity on the filter was measured by liquid scintillation counting.

For experiment [2] the following is noted: doses of 5, 10 and 20 mg daily; cited from earlier work.

SMILES strings stand for the structures.

As usually defined, the IC50 is the concentration at which inhibition is half-maximal. Read a high IC50 as a need for much substance.

T1 sequence (P21554 whole entry): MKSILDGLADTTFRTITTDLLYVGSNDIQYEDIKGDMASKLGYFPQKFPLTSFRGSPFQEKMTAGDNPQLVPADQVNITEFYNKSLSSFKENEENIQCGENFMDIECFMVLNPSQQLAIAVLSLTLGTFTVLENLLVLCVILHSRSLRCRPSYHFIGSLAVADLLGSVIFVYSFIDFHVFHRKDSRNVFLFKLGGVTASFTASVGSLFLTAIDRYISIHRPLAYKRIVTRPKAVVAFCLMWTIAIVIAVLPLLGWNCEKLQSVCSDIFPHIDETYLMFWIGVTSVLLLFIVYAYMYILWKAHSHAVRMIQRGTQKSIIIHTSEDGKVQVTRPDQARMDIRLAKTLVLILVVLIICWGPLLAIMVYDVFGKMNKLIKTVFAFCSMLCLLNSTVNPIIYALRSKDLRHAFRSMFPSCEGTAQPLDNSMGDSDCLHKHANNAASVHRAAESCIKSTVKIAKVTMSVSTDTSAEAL

On to `O=C(c1cc2c(cc1F)OC1(O2)c2ccc(Cl)cc2CCc2cc(Cl)ccc21)N1CCOCC1` [Example 1, 4-[(2′,8′-dichloro-6-fluoro-10′,11′-dihydrospiro[1,3-benzodioxole-2,5′-[5H]dibenzo[a,d]cyclohepten]-5-yl)carbonyl]-morpholine], for which, in experiment [1], the IC50 was 13 nM. `O=C(c1ccc2c(c1)OC1(O2)c2ccc(Cl)cc2CCc2cc(Cl)ccc21)C1CCNCC1` [Example 2, 4-[(2′,8′-dichloro-10′,11′-dihydrospiro[1,3-benzodioxole-2,5′-[5H]dibenzo[a,d]cyclohepten]-5-yl)carbonyl]-piperidine]: the IC50 in experiment [1] came out at 18 nM. In the case of `Cc1c(C(=O)NN2CCCCC2)nn(-c2ccc(Cl)cc2Cl)c1-c1ccc(Cl)cc1` [SR 141716], the “body weight compared to placebo” value in experiment [2] is recorded as “significantly reduced body weight”.
